Experimental data taken from US12595253B2, “Benzamides of pyrazolylamino-pyrimidinyl derivatives, and compositions and methods thereof” (LYNK PHARMACEUTICALS CO. LTD., priority 2019, dated 2026).
pIC50: −log10 of the molar value.

Target: T1, JAK1 (Homo sapiens, UniProt P23458)
T1 construct: purchased Carna Biosciences
Assay: JAK1 microfluidic kinase assay (Caliper EZ Reader II, FAM labeled peptide substrate)
Assay type: biochemical
Conditions: IC50 JAK1 (5 nM) (1 m MATP), JAK1 5 nM, 1 mM ATP
Description: (§1) Compounds were tested against JAK1, JAK2, JAK2V617F and TYK2. Assay Formats: JAK activity was determined in the reaction buffer 50 mM HEPES, 0.01% Brij35, 10 mM MgCl2, 2 mM DTT by a microfluidic assay. The phosphorylation of a FAM labeled peptide substrate was monitored in the Caliper EZ Reader II (Perkin Elmer). The assay condition for each batch of enzyme (Carna Biosciences) was optimized to obtain 10% conversion rate of peptide substrate. The test compounds were dissolved in DMSO to a stock concentration of 10 mM. 3-fold serially diluted compounds with top concentration of 5 μM were pre-incubated with JAK1, JAK2, JAK2V617F or TYK2 at indicated concentrations for 10 min at ambient temperature. The final DMSO concentration of assay mixture was 1%. […] The reaction was stopped by adding 50 mM EDTA. […] The percent inhibition was calculated by the following formula. % Inhibition=(Conversionmax−Conversionsample)/(Conversionmax−Conversionmin)*100 • Conversionmax means the conversion rate in the positive well without addition of compound • Conversionmin means the conversion rate in the well without addition of enzyme • Conversionsample means the conversion rate of test compounds The dose-response (percent inhibition) curve was plotted and IC50 values were determined by GraphPad software.

T1 sequence (P23458 whole entry): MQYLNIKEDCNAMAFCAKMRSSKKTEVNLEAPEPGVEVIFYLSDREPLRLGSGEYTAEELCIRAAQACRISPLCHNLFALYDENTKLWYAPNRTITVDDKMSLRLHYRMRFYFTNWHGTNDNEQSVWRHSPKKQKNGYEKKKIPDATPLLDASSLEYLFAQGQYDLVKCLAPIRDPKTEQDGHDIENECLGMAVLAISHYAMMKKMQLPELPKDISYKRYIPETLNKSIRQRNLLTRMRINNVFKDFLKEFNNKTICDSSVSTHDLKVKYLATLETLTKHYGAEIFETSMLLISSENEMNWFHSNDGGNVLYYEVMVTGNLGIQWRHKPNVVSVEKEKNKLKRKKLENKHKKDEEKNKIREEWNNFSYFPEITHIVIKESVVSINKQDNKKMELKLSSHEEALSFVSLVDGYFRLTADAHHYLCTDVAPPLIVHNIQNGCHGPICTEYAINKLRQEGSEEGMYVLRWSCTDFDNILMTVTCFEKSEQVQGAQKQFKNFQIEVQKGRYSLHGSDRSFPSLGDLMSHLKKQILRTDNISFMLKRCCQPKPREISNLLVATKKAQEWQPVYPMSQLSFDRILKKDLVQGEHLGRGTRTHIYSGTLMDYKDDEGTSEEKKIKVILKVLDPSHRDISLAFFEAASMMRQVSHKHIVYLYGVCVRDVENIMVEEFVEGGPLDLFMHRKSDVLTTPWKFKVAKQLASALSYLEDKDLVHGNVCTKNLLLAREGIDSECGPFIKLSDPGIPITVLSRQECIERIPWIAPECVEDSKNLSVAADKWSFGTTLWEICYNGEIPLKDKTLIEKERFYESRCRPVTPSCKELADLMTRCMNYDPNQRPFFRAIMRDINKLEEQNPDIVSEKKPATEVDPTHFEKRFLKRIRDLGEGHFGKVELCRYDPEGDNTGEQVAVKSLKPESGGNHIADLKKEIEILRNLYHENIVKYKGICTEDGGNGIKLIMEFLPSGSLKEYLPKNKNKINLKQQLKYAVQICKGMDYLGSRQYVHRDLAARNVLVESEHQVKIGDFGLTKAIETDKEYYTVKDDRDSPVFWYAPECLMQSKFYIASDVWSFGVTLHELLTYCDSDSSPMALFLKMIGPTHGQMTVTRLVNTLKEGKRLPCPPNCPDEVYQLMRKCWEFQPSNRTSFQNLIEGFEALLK

Compound	pIC50
C[C@@H](C#N)NC(=O)c1ccc(-c2nc(Nc3cnn(C4CCN(C(=O)C(C)(C)C)CC4)c3)ncc2F)cc1 [Example 57, (S)—N-(1-cyanoethyl)-4-(5-fluoro-2-((1-(1-pivaloylpiperidin-4-yl)-1H-pyrazol-4-yl)amino)pyrimidin-4-yl)benzamide]	6.88
Cc1cnc(Nc2cnn(C3CC(C)(C)OC(C)(C)C3)c2)nc1-c1ccc(C(=O)N[C@@H](C)C#N)c(F)c1 [Example 224, (S)—N-(1-Cyanoethyl)-2-fluoro-4-(5-methyl-2-((1-(2,2,6,6-tetramethyltetrahydro-2H-pyran-4-yl)-1H-pyrazol-4-yl)amino)pyrimidin-4-yl)benzamide]	7.01
N#CCNC(=O)c1ccc(-c2nc(Nc3cnn(CC(N)=O)c3)ncc2Cl)cc1 [Example 42, 4-(2-((1-(2-amino-2-oxoethyl)-1H-pyrazol-4-yl)amino)-5-chloropyrimidin-4-yl)-N-(cyanomethyl)benzamide]	7.04

Target: T2, JAK2 (Homo sapiens, UniProt O60674)
T2 construct: purchased Carna Biosciences
T2 sequence (O60674 whole entry): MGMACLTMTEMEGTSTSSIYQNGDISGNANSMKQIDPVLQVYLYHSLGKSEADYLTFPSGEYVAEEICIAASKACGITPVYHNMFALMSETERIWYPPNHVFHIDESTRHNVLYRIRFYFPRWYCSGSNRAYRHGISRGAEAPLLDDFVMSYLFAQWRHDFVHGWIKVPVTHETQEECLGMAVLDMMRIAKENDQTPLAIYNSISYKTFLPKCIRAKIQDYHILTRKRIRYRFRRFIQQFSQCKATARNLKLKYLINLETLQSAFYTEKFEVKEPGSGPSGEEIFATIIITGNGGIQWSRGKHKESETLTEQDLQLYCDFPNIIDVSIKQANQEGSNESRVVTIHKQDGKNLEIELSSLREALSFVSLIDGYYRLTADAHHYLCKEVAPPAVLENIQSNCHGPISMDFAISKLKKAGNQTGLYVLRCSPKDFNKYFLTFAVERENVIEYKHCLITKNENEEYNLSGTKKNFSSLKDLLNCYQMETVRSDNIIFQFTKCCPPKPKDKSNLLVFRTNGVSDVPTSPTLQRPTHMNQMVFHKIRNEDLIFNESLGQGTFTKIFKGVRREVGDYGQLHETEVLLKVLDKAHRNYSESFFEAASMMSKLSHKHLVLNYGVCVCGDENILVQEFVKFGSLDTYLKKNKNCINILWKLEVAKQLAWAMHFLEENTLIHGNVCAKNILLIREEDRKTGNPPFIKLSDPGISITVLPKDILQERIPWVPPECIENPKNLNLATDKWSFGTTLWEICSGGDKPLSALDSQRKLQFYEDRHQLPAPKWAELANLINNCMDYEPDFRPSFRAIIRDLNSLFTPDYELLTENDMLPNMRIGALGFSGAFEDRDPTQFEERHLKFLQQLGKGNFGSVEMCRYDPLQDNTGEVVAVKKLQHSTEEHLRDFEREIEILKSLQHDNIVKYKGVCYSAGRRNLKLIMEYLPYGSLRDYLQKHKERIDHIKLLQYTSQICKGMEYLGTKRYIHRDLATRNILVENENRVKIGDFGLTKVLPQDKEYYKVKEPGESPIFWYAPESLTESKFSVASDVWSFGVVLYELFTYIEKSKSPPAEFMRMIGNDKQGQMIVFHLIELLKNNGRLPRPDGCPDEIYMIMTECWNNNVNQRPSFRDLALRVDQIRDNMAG
Assay: JAK2 microfluidic kinase assay (Caliper EZ Reader II, FAM labeled peptide substrate)
Assay type: biochemical
Conditions: IC50 JAK2 ([…]) (1 mM ATP), 1 mM ATP
Description: as §1

Compound	pIC50
N#CCNC(=O)c1ccc(-c2nc(Nc3cnn(C4CC4)c3)ncc2C(F)F)cc1F [Example 109, N-(cyanomethyl)-4-(2-((1-cyclopropyl-1H-pyrazol-4-yl)amino)-5-(difluoromethyl)pyrimidin-4-yl)-2-fluorobenzamide]	6.34
C[C@@H](C#N)NC(=O)c1ccc(-c2nc(Nc3cnn(C4CCN(C(=O)C(C)(C)C)CC4)c3)ncc2F)cc1 [Example 57, (S)—N-(1-cyanoethyl)-4-(5-fluoro-2-((1-(1-pivaloylpiperidin-4-yl)-1H-pyrazol-4-yl)amino)pyrimidin-4-yl)benzamide]	7.41
Cc1cnc(Nc2cnn(C3CC(C)(C)OC(C)(C)C3)c2)nc1-c1ccc(C(=O)N[C@@H](C)C#N)c(F)c1 [Example 224, (S)—N-(1-Cyanoethyl)-2-fluoro-4-(5-methyl-2-((1-(2,2,6,6-tetramethyltetrahydro-2H-pyran-4-yl)-1H-pyrazol-4-yl)amino)pyrimidin-4-yl)benzamide]	9.31

Same assay, conditions: IC50 JAK2 ([…]) (Km ATP), Km ATP

Compound	pIC50
Cc1cnc(Nc2cnn(CC(F)(F)F)c2)nc1-c1ccc(C(=O)N2CC(C#N)C2)cc1 [Example 5, 1-(4-(5-Methyl-2-((1-(2,2,2-trifluoroethyl)-1H-pyrazol-4-yl)amino)pyrimidin-4-yl)benzoyl)azetidine-3-carbonitrile]	7.78
Cc1cnc(Nc2cnn(C)c2)nc1-c1ccc(C(=O)N2CC(C#N)C2)c(F)c1 [Example 103, 1-(2-Fluoro-4-(5-methyl-2-((1-methyl-1H-pyrazol-4-yl)amino)pyrimidin-4-yl)benzoyl)azetidine-3-carbonitrile]	7.92
C[C@@H](C#N)NC(=O)c1ccc(-c2nc(Nc3cnn(C4CC4)c3)ncc2F)cc1F [Example 117, (S)—N-(1-cyanoethyl)-4-(2-((1-cyclopropyl-1H-pyrazol-4-yl)amino)-5-fluoropyrimidin-4-yl)-2-fluorobenzamide]	7.72
N#CC1CN(C(=O)c2ccc(-c3nc(Nc4cnn(C5CC5)c4)ncc3Cl)cc2F)C1 [Example 136, 1-(4-(5-Chloro-2-((1-cyclopropyl-1H-pyrazol-4-yl)amino)pyrimidin-4-yl)-2-fluorobenzoyl)azetidine-3-carbonitrile]	8.04
Cc1cnc(Nc2cnn(CC#N)c2)nc1-c1ccc(C(=O)N2CC(C#N)C2)cc1 [Example 30, 1-(4-(2-((1-(Cyanomethyl)-1H-pyrazol-4-yl)amino)-5-methylpyrimidin-4-yl)benzoyl)azetidine-3-carbonitrile]	7.94
Cc1cnc(Nc2cnn(C3CCN(CC#N)CC3)c2)nc1-c1ccc(C(=O)N2CC(C#N)C2)cc1 [Example 23, 1-(4-(2-((1-(1-(Cyanomethyl)piperidin-4-yl)-1H-pyrazol-4-yl)amino)-5-methylpyrimidin-4-yl)benzoyl)azetidine-3-carbonitrile]	8.54
C[C@@H](C#N)NC(=O)c1ccc(-c2ccnc(Nc3cnn(C4CC4)c3)n2)cc1F [Example 142, (S)—N-(1-Cyanoethyl)-4-(2-((1-cyclopropyl-1H-pyrazol-4-yl)amino)pyrimidin-4-yl)-2-fluorobenzamide]	7.90
N#CCNC(=O)c1ccc(-c2nc(Nc3cnn(CC(F)(F)F)c3)ncc2F)cc1F [Example 130, N-(cyanomethyl)-2-fluoro-4-(5-fluoro-2-((1-(2,2,2-trifluoroethyl)-1H-pyrazol-4-yl)amino)pyrimidin-4-yl)benzamide]	7.24
Cc1cnc(Nc2cnn(C)c2)nc1-c1ccc(C(=O)N2CC(C#N)C2)cc1 [Example 15, 1-(4-(5-Methyl-2-((1-methyl-1H-pyrazol-4-yl)amino)pyrimidin-4-yl)benzoyl)azetidine-3-carbonitrile]	8.07
N#CC1CN(C(=O)c2ccc(-c3ccnc(Nc4cnn(C5CC5)c4)n3)cc2F)C1 [Example 141, 1-(4-(2-((1-Cyclopropyl-1H-pyrazol-4-yl)amino)pyrimidin-4-yl)-2-fluorobenzoyl)azetidine-3-carbonitrile]	7.39
Cc1cnc(Nc2cnn(C)c2)nc1-c1ccc(C(=O)NCC#N)c(F)c1 [Example 100, N-(Cyanomethyl)-2-fluoro-4-(5-methyl-2-((1-methyl-1H-pyrazol-4-yl)amino)pyrimidin-4-yl)benzamide]	8.36
Cc1cnc(Nc2cnn(C3CC3)c2)nc1-c1ccc(C(=O)NCC#N)c(F)c1 [Example 128, N-(cyanomethyl)-4-(2-((1-cyclopropyl-1H-pyrazol-4-yl)amino)-5-methylpyrimidin-4-yl)-2-fluorobenzamide]	8.82
Cn1cc(Nc2nccc(-c3ccc(C(=O)NCC#N)cc3F)n2)cn1 [Example 35, N-(Cyanomethyl)-3-fluoro-4-(2-((1-methyl-1H-pyrazol-4-yl)amino)pyrimidin-4-yl)benzamide]	7.46
Cc1cnc(Nc2cnn(C)c2)nc1-c1ccc(C(=O)NCCO)cc1 [Example 8, N-(2-Hydroxyethyl)-4-(5-methyl-2-((1-methyl-1H-pyrazol-4-yl)amino)pyrimidin-4-yl)benzamide]	7.85
Cc1cnc(Nc2cnn(C)c2)nc1-c1ccc(C(=O)NC(C)C#N)cc1 (stereo not shown) [Example 17, N-(1-Cyanoethyl)-4-(5-methyl-2-((1-methyl-1H-pyrazol-4-yl)amino)pyrimidin-4-yl)benzamide]	8.29
COc1cc(-c2nc(Nc3cnn(C)c3)ncc2C)ccc1C(=O)NCC#N [Example 33, N-(cyanomethyl)-2-methoxy-4-(5-methyl-2-((1-methyl-1H-pyrazol-4-yl)amino)pyrimidin-4-yl)benzamide]	7.39
Cc1cnc(Nc2cnn(C3CC3)c2)nc1-c1ccc(C(=O)N2CC(C#N)C2)cc1 [Example 29, 1-(4-(2-((1-Cyclopropyl-1H-pyrazol-4-yl)amino)-5-methylpyrimidin-4-yl)benzoyl)azetidine-3-carbonitrile]	8.26
Cc1cnc(Nc2cnn(C)c2)nc1-c1ccc(C(=O)NCC(O)CO)cc1 (stereo not shown) [Example 14, N-(2,3-Dihydroxypropyl)-4-(5-methyl-2-((1-methyl-1H-pyrazol-4-yl)amino)pyrimidin-4-yl)benzamide]	7.85
Cc1cnc(Nc2cnn(C)c2)nc1-c1ccc(C(=O)NC2CC(O)C2)cc1 (stereo not shown) [Example 9, N-(3-Hydroxycyclobutyl)-4-(5-methyl-2-((1-methyl-1H-pyrazol-4-yl)amino)pyrimidin-4-yl)benzamide]	7.76
N#CC1CN(C(=O)c2ccc(-c3nc(Nc4cnn(C5CC5)c4)ncc3F)cc2F)C1 [Example 127, 1-(4-(2-((1-Cyclopropyl-1H-pyrazol-4-yl)amino)-5-fluoropyrimidin-4-yl)-2-fluorobenzoyl)azetidine-3-carbonitrile]	7.27
N#CCNC(=O)c1ccc(-c2nc(Nc3cnn(C4CC4)c3)ncc2Cl)cc1F [Example 135, 4-(5-Chloro-2-((1-cyclopropyl-1H-pyrazol-4-yl)amino)pyrimidin-4-yl)-N-(cyanomethyl)-2-fluorobenzamide]	8.55
Cc1cnc(Nc2cnn(C)c2)nc1-c1ccc(C(=O)NCCN(C)C)cc1 [Example 105, N-(2-(Dimethylamino)ethyl)-4-(5-methyl-2-((1-methyl-1H-pyrazol-4-yl)amino)pyrimidin-4-yl)benzamide]	7.25
CC(=O)N1CCC(n2cc(Nc3ncc(C)c(-c4ccc(C(=O)N5CC(C#N)C5)cc4)n3)cn2)CC1 [Example 102, 1-(4-(2-((1-(1-Acetylpiperidin-4-yl)-1H-pyrazol-4-yl)amino)-5-methylpyrimidin-4-yl)benzoyl)azetidine-3-carbonitrile]	8.59
N#CCNC(=O)c1ccc(-c2nc(Nc3cnn(C4CC4)c3)ncc2F)cc1F [Example 116, N-(Cyanomethyl)-4-(2-((1-cyclopropyl-1H-pyrazol-4-yl)amino)-5-fluoropyrimidin-4-yl)-2-fluorobenzamide]	7.97
N#CCNC(=O)c1ccc(-c2nc(Nc3cnn(CC(F)F)c3)ncc2F)cc1F [Example 131, N-(cyanomethyl)-4-(2-((1-(2,2-difluoroethyl)-1H-pyrazol-4-yl)amino)-5-fluoropyrimidin-4-yl)-2-fluorobenzamide]	7.58
Cc1cnc(Nc2cnn(C)c2)nc1-c1ccc(C(=O)NCCCO)cc1 [Example 7, N-(3-Hydroxypropyl)-4-(5-methyl-2-((1-methyl-1H-pyrazol-4-yl)amino)pyrimidin-4-yl)benzamide]	8.00
Cn1cc(Nc2ncc(F)c(-c3ccc(C(=O)NCC#N)c(F)c3)n2)cn1 [Example 36, N-(Cyanomethyl)-2-fluoro-4-(5-fluoro-2-((1-methyl-1H-pyrazol-4-yl)amino)pyrimidin-4-yl)benzamide]	7.66
Cc1cnc(Nc2cnn(C3CCN(C(=O)C4(C)COC4)CC3)c2)nc1-c1ccc(C(=O)NCC#N)cc1 [Example 118, N-(Cyanomethyl)-4-(5-methyl-2-((1-(1-(3-methyloxetane-3-carbonyl)piperidin-4-yl)-1H-pyrazol-4-yl)amino)pyrimidin-4-yl)benzamide]	> 9.60
